Results published in patent US9550796B2, “Pyrrolopyrrolone derivatives and their use as BET inhibitors” (NOVARTIS AG, priority 2013, dated 2017).

Legend:
[1] = target: BRD4 (Homo sapiens (Human), UniProt O60885); assay: TR-FRET in-vitro binding assay for BRD4; details: 45 nM His-Brd4(44-477), acetyl-histone H4 (AcK 5, 8, 12, 16) peptide
Summary of the method: (§1)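 TR-FRET binding read after 35 min incubation at 30° C. Compounds dispensed from 90% DMSO solutions and tested at 8 concentrations in a 13.55 μL total reaction volume.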

[2] = target: BRD2 (Homo sapiens (Human), UniProt P25440); assay: TR-FRET in-vitro binding assay for BRD2; details: 45 nM His-Brd2(60-472), acetyl-histone H4 (AcK 5, 8, 12, 16) peptide
Sequence of BRD2 (P25440 60-472): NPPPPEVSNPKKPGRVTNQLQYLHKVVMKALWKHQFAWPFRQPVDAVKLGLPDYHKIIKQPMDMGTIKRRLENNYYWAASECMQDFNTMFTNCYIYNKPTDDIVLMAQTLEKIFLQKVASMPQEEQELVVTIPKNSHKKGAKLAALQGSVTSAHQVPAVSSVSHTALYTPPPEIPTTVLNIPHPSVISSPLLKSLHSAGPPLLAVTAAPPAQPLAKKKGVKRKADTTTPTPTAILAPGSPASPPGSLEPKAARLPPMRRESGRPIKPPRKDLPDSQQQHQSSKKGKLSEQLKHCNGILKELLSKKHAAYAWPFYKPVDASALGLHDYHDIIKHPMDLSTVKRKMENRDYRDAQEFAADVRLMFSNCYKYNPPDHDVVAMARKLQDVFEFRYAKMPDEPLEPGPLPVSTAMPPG
Summary of the method: as §1

[3] = target: BRD3 (Homo sapiens (Human), UniProt Q15059); assay: TR-FRET in-vitro binding assay for BRD3; details: 45 nM His-Brd3(20-477), acetyl-histone H4 (AcK 5, 8, 12, 16) peptide
Sequence of BRD3 (Q15059 20-477): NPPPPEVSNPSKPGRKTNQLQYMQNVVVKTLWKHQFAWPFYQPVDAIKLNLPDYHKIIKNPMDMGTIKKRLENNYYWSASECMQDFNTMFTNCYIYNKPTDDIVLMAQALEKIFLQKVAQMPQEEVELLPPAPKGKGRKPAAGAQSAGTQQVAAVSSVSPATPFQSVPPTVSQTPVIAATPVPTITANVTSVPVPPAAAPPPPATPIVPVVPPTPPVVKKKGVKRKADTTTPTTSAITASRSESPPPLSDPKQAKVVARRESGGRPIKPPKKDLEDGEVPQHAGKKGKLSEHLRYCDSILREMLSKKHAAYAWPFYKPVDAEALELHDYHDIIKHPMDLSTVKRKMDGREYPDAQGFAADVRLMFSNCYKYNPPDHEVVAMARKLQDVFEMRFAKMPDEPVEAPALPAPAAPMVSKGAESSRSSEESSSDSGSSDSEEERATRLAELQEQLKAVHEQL
Summary of the method: as §1

[4] = target: CREBBP (Homo sapiens (Human), UniProt Q92793); assay: AlphaScreen in-vitro binding assay for CREBBP; details: 324 nM His-CREBBP (1081-1197), acetyl-histone H4 (AcK 5, 8, 12) peptide
Sequence of CREBBP (Q92793 1081-1197): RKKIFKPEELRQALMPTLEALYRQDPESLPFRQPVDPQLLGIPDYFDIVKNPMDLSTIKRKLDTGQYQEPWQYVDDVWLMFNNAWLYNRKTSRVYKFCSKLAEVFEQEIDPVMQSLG
Summary of the method: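 IC50 values were derived by non-linear regression of percent inhibition across 8 compound concentrations. Protein was His-tagged CREBBP bromodomain (1081-1197), peptide acetyl-histone H4 (AcK 5, 8, 12), in HEPES pH 7.5 buffer. Read-out was AlphaScreen with Ni-chelate acceptor and streptavidin donor beads, 35 min at 30° C then 60 min at RT.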

[5] = tested on: MV-4-11; assay: Cell growth inhibition assay (CellTiter-Glo), MV-4-11; type: cell-based, human; details: MV-4-11 cells, 4 days; for GI50: Homo sapiens, MV4-11, 96 h, half-maximal growth inhibition; for MV-4-11 TGI: total growth inhibition
Summary of the method: (§2)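 Seed cells in their own media; add compound as 3-fold dilutions from 10 μM (0.1% DMSO final). Incubate 4 days at 37 °C, 5% CO2, then add CTG and read luminescence. Subtract no-cell background, correct to a day 0 plate, and fit IC50 and TGI.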

[6] = tested on: THP-1; assay: Cell growth inhibition assay (CellTiter-Glo), THP-1; type: cell-based, human; details: THP-1 cells, 4 days; for GI50: Homo sapiens, 96 h, half-maximal growth inhibition; for THP-1 TGI: total growth inhibition
Summary of the method: as §2

[7] = tested on: K-562; assay: Cell growth inhibition assay (CellTiter-Glo), K-562; type: cell-based, human; details: K-562 cells, 4 days; for GI50: Homo sapiens, K562, 96 h, half-maximal growth inhibition; for K-562 TGI: total growth inhibition
Summary of the method: as §2

Row | IC50 [1] [nM] | IC50 [2] [nM] | IC50 [3] [nM] | IC50 [4] [nM] | GI50 [5] [nM] | GI50 [6] [nM] | GI50 [7] [nM] | Structure (SMILES) | MV-4-11 TGI [5] [nM] | THP-1 TGI [6] [nM] | K-562 TGI [7] [nM]
1 | 357 | 230 | 210 | 10600 | 402 | 598 | 1910 | Cn1ccc2c1C(c1ccc(C#N)cc1)N(c1cc(Cl)c(=O)n(C)c1)C2=O (stereo not drawn) [Example 89, 4-(5-(5-chloro-1-methyl-6-oxo-1,6-dihydropyridin-3-yl)-1-methyl-4-oxo-1,4,5,6-tetrahydropyrrolo[3,4-b]pyrrol-6-yl)benzonitrile] | 785 | 2015 | >10000
2 | 267 | 265 | 196 | 1450 | 222 | 218 | 618 | Cn1ccc2c1C(c1ccc(Cl)c(F)c1)N(c1cc(Cl)c(=O)n(C)c1)C2=O (stereo not drawn) [Example 90, 5-(5-chloro-1-methyl-6-oxo-1,6-dihydropyridin-3-yl)-6-(4-chloro-3-fluorophenyl)-1-methyl-5,6-dihydropyrrolo[3,4-b]pyrrol-4(1H)-one] | 407.5 | 446.5 | >10000
3 | 13 | 15 | 14 | > 37000 | 2.54 | 3.12 | 27.4 | CNC(=O)c1cn(C)c2c1C(=O)N(c1cc(C)c3nnn(C)c3n1)C2c1ccc(Cl)cc1 (stereo not drawn) [Example 93, 6-(4-chlorophenyl)-5-(3,7-dimethyl-3H-[1,2,3]triazolo[4,5-b]pyridin-5-yl)-N,1-dimethyl-4-oxo-1,4,5,6-tetrahydropyrrolo[3,4-b]pyrrole-3-carboxamide] | 10.49 | 11.24 | >10000
4 | 12 | 17 | 13 | > 37000 | 8.19 | 12.4 | 34.6 | Cc1cc(N2C(=O)c3c(C(=O)N(C)C)cn(C)c3C2c2ccc(Cl)cc2)nc2c1nnn2C (stereo not drawn) [Example 94, 6-(4-chlorophenyl)-5-(3,7-dimethyl-3H-[1,2,3]triazolo[4,5-b]pyridin-5-yl)-N,N,1-trimethyl-4-oxo-1,4,5,6-tetrahydropyrrolo[3,4-b]pyrrole-3-carboxamide] | 21.95 | 29.85 | >10000
5 | 16 | 34 | 26 | > 37000 | 31.4 | 34.9 | 123 | Cc1cc(N2C(=O)c3c(NC(=O)OC(C)(C)C)cn(C)c3C2c2ccc(Cl)cc2)nc2c1nnn2C (stereo not drawn) [Example 95, Tert-butyl (6-(4-chlorophenyl)-5-(3,7-dimethyl-3H-[1,2,3]triazolo[4,5-b]pyridin-5-yl)-1-methyl-4-oxo-1,4,5,6-tetrahydropyrrolo[3,4-b]pyrrol-3-yl)carbamate] | 63.1 | 81.5 | >10000
6 | 16 | 36 | 17 | > 37000 | 10.9 | 11.2 | 32.8 | CC(=O)Nc1cn(C)c2c1C(=O)N(c1cc(C)c3nnn(C)c3n1)C2c1ccc(Cl)cc1 (stereo not drawn) [Example 96, N-(6-(4-chlorophenyl)-5-(3,7-dimethyl-3H-[1,2,3]triazolo[4,5-b]pyridin-5-yl)-1-methyl-4-oxo-1,4,5,6-tetrahydropyrrolo[3,4-b]pyrrol-3-yl)acetamide] | 21.2 | 21.25 | >10000
7 | 35 | 15 | < 11 | > 37000 | 13.7 | 17.9 | 48.7 | CCOC(=O)Nc1cn(C)c2c1C(=O)N(c1cc(C)c3nnn(C)c3n1)C2c1ccc(Cl)cc1 (stereo not drawn) [Example 97, Ethyl (6-(4-chlorophenyl)-5-(3,7-dimethyl-3H-[1,2,3]triazolo[4,5-b]pyridin-5-yl)-1-methyl-4-oxo-1,4,5,6-tetrahydropyrrolo[3,4-b]pyrrol-3-yl)carbamate] | 24.95 | 33.45 | >10000
8 | < 11 | 16 | 13 | > 37000 | 13.6 | 27.8 | 138 | CNC(=O)c1cn(C)c2c1C(=O)N(c1cc(C)c3nnc(C)n3c1)C2c1ccc(Cl)cc1 (stereo not drawn) [Example 99, 6-(4-chlorophenyl)-5-(3,8-dimethyl-[1,2,4]triazolo[4,3-a]pyridin-6-yl)-N,1-dimethyl-4-oxo-1,4,5,6-tetrahydropyrrolo[3,4-b]pyrrole-3-carboxamide] | 38.3 | 96 | >10000
9 | 30 | 40 | 47 | > 37000 | 128 | 518 | 2040 | Cc1cc(N2C(=O)c3c(C(=O)N(C)C)cn(C)c3C2c2ccc(Cl)cc2)cn2c(C)nnc12 (stereo not drawn) [Example 100, 6-(4-chlorophenyl)-5-(3,8-dimethyl-[1,2,4]triazolo[4,3-a]pyridin-6-yl)-N,N,1-trimethyl-4-oxo-1,4,5,6-tetrahydropyrrolo[3,4-b]pyrrole-3-carboxamide] | 368.5 | 2135 | >10000
10 | 41 | 54 | 42 | 30600 | 57.4 | 150 | 1300 | Cc1cc(N2C(=O)c3c(C(N)=O)cn(C)c3C2c2ccc(Cl)cc2)cn2c(C)nnc12 (stereo not drawn) [Example 101, 6-(4-chlorophenyl)-5-(3,8-dimethyl-[1,2,4]triazolo[4,3-a]pyridin-6-yl)-1-methyl-4-oxo-1,4,5,6-tetrahydropyrrolo[3,4-b]pyrrole-3-carboxamide] | 160.5 | 450.5 | >10000
11 | 32 | 44 | 34 | 3200 | 37.3 | 53.3 | 185 | Cc1cc(N2C(=O)c3c(NC(=O)OC(C)(C)C)cn(C)c3C2c2ccc(Cl)cc2)cn2c(C)nnc12 (stereo not drawn) [Example 102, Tert-butyl (6-(4-chlorophenyl)-5-(3,8-dimethyl-[1,2,4]triazolo[4,3-a]pyridin-6-yl)-1-methyl-4-oxo-1,4,5,6-tetrahydropyrrolo[3,4-b]pyrrol-3-yl)carbamate] | 90.4 | 118 | >10000
12 | 21 | 35 | 21 | 14800 | 2.98 | 6.31 | 36.5 | Cc1cc(N2C(=O)c3c(C4CC4)cn(C4COC4)c3C2c2ccc(Cl)cc2)nc2c1nnn2C (stereo not drawn) [Example 104, 6-(4-chlorophenyl)-3-cyclopropyl-5-(3,7-dimethyl-3H-[1,2,3]triazolo[4,5-b]pyridin-5-yl)-1-(oxetan-3-yl)-5,6-dihydropyrrolo[3,4-b]pyrrol-4(1H)-one] | 11 | 18.4 | >10000
